Experimental data taken from US8378117B2 (priority 2005, dated 2013).
Like-named read-outs stand apart in the source and are kept apart here.

Legend:
CB1 receptor = biological target: T1, CB1 receptor (Homo sapiens, UniProt P21554); assay: Binding assay for CB1 agonists or inverse agonists (SK-N-MC membranes, [3H]-CP-55,940); conditions: for CB1 receptor binding average percent inhibition: value shown is an average percent inhibition (footnote 5), concentration not given; for inhibition at 0.25 µM: read-out: CB1 receptor binding percent inhibition, test concentration 0.25 μM (footnote 8); for inhibition at 1 µM: read-out: CB1 receptor binding percent inhibition, test concentration 1 μM (footnote 1); for inhibition at 0.5 µM: read-out: CB1 receptor binding percent inhibition, test concentration 0.5 μM (footnote 10)
T1 construct: expressed in transfected cells
T1 sequence (P21554 whole entry): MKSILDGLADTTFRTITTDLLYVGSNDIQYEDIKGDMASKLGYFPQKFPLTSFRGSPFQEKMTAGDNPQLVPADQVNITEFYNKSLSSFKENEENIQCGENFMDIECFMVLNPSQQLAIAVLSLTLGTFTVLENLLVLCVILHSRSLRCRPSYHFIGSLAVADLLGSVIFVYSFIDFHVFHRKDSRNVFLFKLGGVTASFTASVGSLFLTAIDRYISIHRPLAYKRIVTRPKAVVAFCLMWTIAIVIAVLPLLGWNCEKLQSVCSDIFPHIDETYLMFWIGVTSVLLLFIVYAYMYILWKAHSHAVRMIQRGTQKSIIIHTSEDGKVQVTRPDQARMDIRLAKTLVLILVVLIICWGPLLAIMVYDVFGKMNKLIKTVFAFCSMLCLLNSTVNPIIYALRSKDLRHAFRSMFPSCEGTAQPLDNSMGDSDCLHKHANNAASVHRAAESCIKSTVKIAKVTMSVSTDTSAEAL
Summary of the method: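 Radioligand displacement: [3H]-CP-55,940 at […], 90 min at 30° C, pH 7.5 Tris buffer with 0.5 mg/mL fatty-acid-free BSA, using semi-purified membranes of human-CB1-transfected SK-N-MC cells. Bound counts collected on GF/C filters, 10 uM WIN 55,212 for non-specific; IC50 from percent inhibition over several concentrations.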

CB2 receptor = biological target: T2, CB2 receptor (Homo sapiens, UniProt P34972); assay: Binding assay for CB2 agonists or inverse agonists (SK-N-MC membranes, [3H]-CP-55,940); conditions: for CB2 receptor binding percent inhibition: test concentration not stated; for IC50: Cannabinoid CB2 Receptor Binding IC50, calculated by linear regression from percent inhibition at various test concentrations; for inhibition at 0.25 µM: test concentration 0.25 μM (footnote 8)
T2 construct: expressed in transfected cells
T2 sequence (P34972 whole entry): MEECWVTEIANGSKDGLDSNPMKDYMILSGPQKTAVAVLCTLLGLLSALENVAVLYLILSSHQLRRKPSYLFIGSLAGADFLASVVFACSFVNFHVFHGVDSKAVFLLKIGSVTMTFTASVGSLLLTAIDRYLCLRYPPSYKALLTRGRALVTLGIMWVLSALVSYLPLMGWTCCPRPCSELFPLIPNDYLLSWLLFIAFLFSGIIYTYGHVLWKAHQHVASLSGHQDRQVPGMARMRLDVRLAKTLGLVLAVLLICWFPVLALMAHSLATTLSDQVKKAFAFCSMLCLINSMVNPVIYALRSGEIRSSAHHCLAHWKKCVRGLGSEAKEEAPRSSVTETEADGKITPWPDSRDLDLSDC
Summary of the method: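 IC50 came from percent-inhibition data over several compound concentrations, fitted by linear regression. Binding used semi-purified membranes of human CB2-transfected SK-N-MC cells, 90 min at 30 °C, pH 7.5 Tris-HCl with MgCl2, EDTA and BSA, then filtration and scintillation counting.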

[1] = calculated by linear regression from percent inhibition at various test concentrations, read-out: Cannabinoid CB1 Receptor Binding IC50
[2] = read-out: CB2 receptor binding percent inhibition

Row | SMILES | CB2 receptor binding percent inhibition (CB2 receptor) [%] | inhibition at 1 µM (CB1 receptor) [%] | other results
1 | C[C@H](NC(=O)c1nn(-c2ccc(Cl)cc2Cl)c2c1CCCCC2Cc1ccc(Cl)cc1)c1ccccc1 (stereo partly drawn) [Cpd 76, 8-(4-chloro-benzyl)-1-(2,4-dichloro-phenyl)-1,4,5,6,7,8-hexahydro-cycloheptapyrazole-3-carboxylic acid [(1S)-1-phenyl-ethyl]-amide] | 38 |  | CB1 receptor binding average percent inhibition (CB1 receptor): ^(5)44%
2 | COC(=O)[C@@H](Cc1ccc(O)cc1)NC(=O)c1nn(C2CCCCC2)c2c1CCCCC2Cc1cccc(F)c1 (stereo partly drawn) [Cpd 82, (2R)-2-{[1-cyclohexyl-8-(3-fluoro-benzyl)-1,4,5,6,7,8-hexahydro-cycloheptapyrazole-3-carbonyl]-amino}-3-(4-hydroxy-phenyl)-propionic acid methyl ester] |  |  | IC50 (CB1 receptor; [1]): 1 µM; CB1 receptor binding average percent inhibition (CB1 receptor): 46%; IC50 (CB2 receptor): 0.06 µM; CB2 receptor binding average percent inhibition (CB2 receptor; value shown is an average percent inhibition (footnote 5), concentration not given): 88%
3 | O=C(NCC(F)(F)F)c1nn(Cc2ccccc2)c2c1CCCCC2c1ccccc1 (centres unmarked) [Cpd 86, 1-benzyl-8-phenyl-1,4,5,6,7,8-hexahydro-cycloheptapyrazole-3-carboxylic acid (2,2,2-trifluoro-ethyl)-amide] |  |  | inhibition at 0.25 µM (CB1 receptor): 0%; inhibition at 0.25 µM (CB2 receptor; [2]): 22%
4 | COC(=O)[C@@H](Cc1ccc(F)cc1)NC(=O)c1nn(Cc2ccccc2)c2c1CCCCC2c1ccccc1 (stereo partly drawn) [Cpd 87, (2R)-2-[(1-benzyl-8-phenyl-1,4,5,6,7,8-hexahydro-cycloheptapyrazole-3-carbonyl)-amino]-3-(4-fluoro-phenyl)-propionic acid methyl ester] |  |  | inhibition at 0.25 µM (CB1 receptor): 4%; inhibition at 0.25 µM (CB2 receptor; [2]): 0%
5 | CCOC(=O)[C@H]1C2C=CC(C2)[C@H]1NC(=O)c1nn(C2CCCCC2)c2c1CCCCC2Cc1ccc(F)cc1 (stereo partly drawn) [Cpd 88, (2S,3R)-3-{[1-cyclohexyl-8-(4-fluoro-benzyl)-1,4,5,6,7,8-hexahydro-cycloheptapyrazole-3-carbonyl]-amino}-bicyclo[2.2.1]hept-5-ene-2-carboxylic acid ethyl ester] | 32 | 2 | 
6 | O=C(NN1CCOCC1)c1nn(C2CCCCC2)c2c1CCCCC2Cc1ccc(F)cc1 (centres unmarked) [Cpd 89, 1-cyclohexyl-8-(4-fluoro-benzyl)-1,4,5,6,7,8-hexahydro-cycloheptapyrazole-3-carboxylic acid morpholin-4-ylamide] | 0 | 11 | 
7 | O=C(NN1CCOCC1)c1nn(C2CCCCC2)c2c1CCCCC2Cc1cccc(F)c1 (centres unmarked) [Cpd 90, 1-cyclohexyl-8-(3-fluoro-benzyl)-1,4,5,6,7,8-hexahydro-cycloheptapyrazole-3-carboxylic acid morpholin-4-ylamide] | 2 | 1 | 
8 | COC(=O)[C@@H](Cc1ccc(O)cc1)NC(=O)c1nn(-c2ccc(F)cc2F)c2c1CCCCC2Cc1cccc(F)c1 (stereo partly drawn) [Cpd 95, (2R)-2-{[1-(2,4-difluoro-phenyl)-8-(3-fluoro-benzyl)-1,4,5,6,7,8-hexahydro-cycloheptapyrazole-3-carbonyl]-amino}-3-(4-hydroxy-phenyl)-propionic acid methyl ester] | 35 | 36 | 
9 | CC12CCC(C1)C(C)(C)[C@H]2NC(=O)c1nn(-c2ccc(F)cc2F)c2c1CCCCC2Cc1ccc(F)cc1 (stereo partly drawn) [Cpd 97, 1-(2,4-difluoro-phenyl)-8-(4-fluoro-benzyl)-1,4,5,6,7,8-hexahydro-cycloheptapyrazole-3-carboxylic acid [(2S)-1,3,3-trimethyl-bicyclo[2.2.1]hept-2-yl]-amide] |  | 38 | IC50 (CB2 receptor): 0.3 µM; inhibition at 1 µM (CB2 receptor; read-out: CB2 receptor binding percent inhibition, test concentration 1 μM (footnote 1)): 71%
10 | COC(=O)[C@@H](Cc1ccc(O)cc1)NC(=O)c1nn(-c2ccc(F)cc2F)c2c1CCCCC2Cc1ccc(F)cc1 (stereo partly drawn) [Cpd 98, (2R)-2-{[1-(2,4-difluoro-phenyl)-8-(4-fluoro-benzyl)-1,4,5,6,7,8-hexahydro-cycloheptapyrazole-3-carbonyl]-amino}-3-(4-hydroxy-phenyl)-propionic acid methyl ester] | 43 | 51 | 
11 | O=C(N[C@@H]1c2ccccc2C[C@@H]1O)c1nn(-c2ccc(F)cc2F)c2c1CCCCC2Cc1cccc(F)c1 (stereo partly drawn) [Cpd 100, 1-(2,4-difluoro-phenyl)-8-(3-fluoro-benzyl)-1,4,5,6,7,8-hexahydro-cycloheptapyrazole-3-carboxylic acid [(1R,2S)-2-hydroxy-indan-1-yl]-amide] | 9 | 31 | 
12 | C[C@H](NS(=O)(=O)/C=C/c1nn(C)c2c1CCCCC2Cc1ccc(F)cc1)c1ccccc1 (stereo partly drawn) [Cpd 101, (2E)-2-[8-(4-fluoro-benzyl)-1-methyl-1,4,5,6,7,8-hexahydro-cycloheptapyrazol-3-yl]-ethenesulfonic acid [(1S)-1-phenyl-ethyl]-amide] |  | 28 | IC50 (CB2 receptor): 0.04 µM; inhibition at 1 µM (CB2 receptor; test concentration 1 μM (footnote 1), read-out: CB2 receptor binding percent inhibition): 97%
13 | COC(=O)[C@@H](Cc1ccc(F)cc1)NC(=O)c1nn(-c2ccc(Cl)cc2Cl)c2c1CCCCC2Cc1cccc(Cl)c1 (stereo partly drawn) [Cpd 103, (2R)-2-{[8-(3-chloro-benzyl)-1-(2,4-dichloro-phenyl)-1,4,5,6,7,8-hexahydro-cycloheptapyrazole-3-carbonyl]-amino}-3-(4-fluoro-phenyl)-propionic acid methyl ester] | 57 | 76 | IC50 (CB1 receptor; Cannabinoid CB1 Receptor Binding IC50, calculated by linear regression from percent inhibition at various test concentrations): 0.3 µM; inhibition at 0.5 µM (CB1 receptor): 56%
14 | CCOC(=O)[C@@H]1C2CCC(C2)[C@@H]1NC(=O)c1nn(C2CCCCC2)c2c1CCCCC2Cc1cccc(F)c1 (stereo partly drawn) [Cpd 105, (2R,3S)-3-{[1-cyclohexyl-8-(3-fluoro-benzyl)-1,4,5,6,7,8-hexahydro-cycloheptapyrazole-3-carbonyl]-amino}-bicyclo[2.2.1]heptane-2-carboxylic acid ethyl ester] | 82 | 2 | 
15 | CCOC(=O)[C@@H]1C2CCC(C2)[C@@H]1NC(=O)c1nn(C2CCCCC2)c2c1CCCCC2Cc1ccc(F)cc1 (stereo partly drawn) [Cpd 106, (2R,3S)-3-{[1-cyclohexyl-8-(4-fluoro-benzyl)-1,4,5,6,7,8-hexahydro-cycloheptapyrazole-3-carbonyl]-amino}-bicyclo[2.2.1]heptane-2-carboxylic acid ethyl ester] | 95 | 45 | 
16 | CCOC(=O)[C@@H]1C2CCC(C2)[C@@H]1NC(=O)c1nn(-c2ccc(Cl)cc2Cl)c2c1CCCCC2Cc1cccc(Cl)c1 (stereo partly drawn) [Cpd 109, (2R,3S)-3-{[8-(3-chloro-benzyl)-1-(2,4-dichloro-phenyl)-1,4,5,6,7,8-hexahydro-cycloheptapyrazole-3-carbonyl]-amino}-bicyclo[2.2.1]heptane-2-carboxylic acid ethyl ester] | 48 | 72 | IC50 (CB1 receptor; [1]): 0.3 µM; inhibition at 0.5 µM (CB1 receptor): 60%
17 | O=C(N[C@@H]1c2ccccc2C[C@@H]1O)c1nn(-c2ccc(F)cc2F)c2c1CCCCC2Cc1ccc(F)cc1 (stereo partly drawn) [Cpd 119, 1-(2,4-difluoro-phenyl)-8-(4-fluoro-benzyl)-1,4,5,6,7,8-hexahydro-cycloheptapyrazole-3-carboxylic acid [(1R,2S)-2-hydroxy-indan-1-yl]-amide] | 38 | 39 | 
18 | Cn1nc(/C=C/S(=O)(=O)NN2CCOCC2)c2c1C(Cc1cccc(F)c1)CCCC2 (centres unmarked) [Cpd 125, (2E)-2-[8-(3-fluoro-benzyl)-1-methyl-1,4,5,6,7,8-hexahydro-cycloheptapyrazol-3-yl]-ethenesulfonic acid morpholin-4-ylamide] | 30 | 0 | 
19 | Cn1nc(/C=C/S(=O)(=O)NN2CCOCC2)c2c1C(Cc1ccc(F)cc1)CCCC2 (centres unmarked) [Cpd 126, (2E)-2-[8-(4-fluoro-benzyl)-1-methyl-1,4,5,6,7,8-hexahydro-cycloheptapyrazol-3-yl]-ethenesulfonic acid morpholin-4-ylamide] | 65 | 0 | 
20 | O=S(=O)(/C=C/c1nn(-c2ccc(F)cc2F)c2c1CCCCC2Cc1ccc(F)cc1)NN1CCOCC1 (centres unmarked) [Cpd 127, (2E)-2-[1-(2,4-difluoro-phenyl)-8-(4-fluoro-benzyl)-1,4,5,6,7,8-hexahydro-cycloheptapyrazol-3-yl]-ethenesulfonic acid morpholin-4-ylamide] | 0 | 36 | 
21 | O=C(NCc1ccccc1)c1n[nH]c2c1CCCCC2Cc1ccc(F)cc1 (centres unmarked) [Cpd 129, 8-(4-fluoro-benzyl)-1,4,5,6,7,8-hexahydro-cycloheptapyrazole-3-carboxylic acid benzylamide] |  |  | inhibition at 0.002 µM (CB1 receptor; read-out: CB1 receptor binding percent inhibition, test concentration 0.002 μM (footnote 11)): 92%; inhibition at 0.008 µM (CB1 receptor; read-out: CB1 receptor binding percent inhibition, test concentration 0.008 μM (footnote 12)): 90%; inhibition at 0.25 µM (CB1 receptor): 100%; CB1 receptor binding percent inhibition (CB1 receptor; test concentration not stated): 94%; inhibition at 0.25 µM (CB2 receptor; [2]): 86%
